The test system of one data set is ARID1A-WT HCT116 cells. Kind of data set: Drug library screen, cell viability (CellTiter-Glo). In kind it is cell-based, human. Here is the method:
(§1) ARID1A-WT and ARID1A-KO HCT116 cancer cells were used for screening assays. […] Cell viability was assessed after 5 days using the CellTiter-Glo Luminescent Cell Viability Assay (Promega). Luminescence was measured using an Envision Multi-label plate reader (PerkinElmer). The luminescence reading was used to determine the cell viability relative to that of cells treated with solvent (DMSO). Candidate compounds were considered if viability of ARID1A-KO cells was less than […] was more than 80%.

A further data set deals with ARID1A-KO HCT116 cells. The description is as above. In kind it is cell-based, human. The method, then: as §1
The mark [1] stands for this setting: HCT116 ARID1A-WT, 10 μM for 5 days, relative to cells treated with solvent (DMSO).
The mark [2] stands for this setting: HCT116 ARID1A-KO, 10 μM for 5 days, relative to cells treated with solvent (DMSO).

SMILES strings stand for the structures. Like-named read-outs stand apart in the source and are kept apart here.

`CC1=NN(c2ccc(C(=O)O)cc2)C(=O)/C1=C\c1ccc(-c2cc(C)c(C)cc2[N+](=O)[O-])o1` [C646]: the “Cell viability, WT” value in the data set with ARID1A-WT HCT116 cells amounted to 93.09. For the same compound, the “Cell viability, KO” value in the data set with ARID1A-KO HCT116 cells is reported as 115.173.
`CCCNC(=O)[C@H]1O[C@@H]1C(=O)N[C@H](C(=O)N1CCC[C@H]1C(=O)O)[C@@H](C)CC` [CA-074]: the “Cell viability, WT” value with ARID1A-WT HCT116 cells (setting [1]) is 107.6022. The “Cell viability, KO” value in the data set on ARID1A-KO HCT116 cells (setting [2]) is 115.0436.
As for `Cc1nc(N)sc1-c1ccnc(Nc2cccc([N+](=O)[O-])c2)n1` [Cdk 2/9 inhibitor], the “Cell viability, WT” value with ARID1A-WT HCT116 cells (setting [1]) was 6.309. For the same compound, in the data set with ARID1A-KO HCT116 cells (setting [2]), the “Cell viability, KO” value is 14.26.
For the compound `Nc1nc(Nc2ccc(S(N)(=O)=O)cc2)nn1C(=S)Nc1c(F)cccc1F` [Cdk½ inhibitor III], the “Cell viability, WT” value with ARID1A-WT HCT116 cells (setting [1]) worked out at 8.59. Besides, in the data set on ARID1A-KO HCT116 cells (setting [2]), the “Cell viability, KO” value is on record as 18.12.
For `NC(=O)c1ccc2nc(-c3ccc(Oc4ccc(Cl)cc4)cc3)[nH]c2c1` [Chk2 inhibitor II], the “Cell viability, WT” value in the data set with ARID1A-WT HCT116 cells (setting [1]) stood at 104.0524. For the same compound, the “Cell viability, KO” value in the data set on ARID1A-KO HCT116 cells (setting [2]) is 139.2543.
On to `CC(C)(O)/C=C/C(=O)[C@](C)(O)[C@H]1[C@H](O)C[C@@]2(C)[C@@H]3CC=C4[C@@H](C=C(O)C(=O)C4(C)C)[C@]3(C)C(=O)C[C@]12C` [Cucurbitacin I], for which the “Cell viability, WT” value with ARID1A-WT HCT116 cells (setting [1]) came out at 13.95. In the data set on ARID1A-KO HCT116 cells (setting [2]), the “Cell viability, KO” value stood at 15.25.
On the same counts, the results for `C=C1[C@@H](C)[C@H]2[C@H](Cc3ccccc3)NC(=O)[C@]23[C@H](OC(C)=O)/C=C/[C@@](C)(O)C(=O)[C@@H](C)C/C=C/[C@H]3[C@@H]1O` [Cytochalasin D] are 63 and 59.86.
For the compound `NC(=O)c1ccc(-c2nc(-c3ccc4c(c3)OCCO4)c(-c3ccccn3)[nH]2)cc1` [D4476], the “Cell viability, WT” value in the data set with ARID1A-WT HCT116 cells was 93.4. In the data set with ARID1A-KO HCT116 cells, the “Cell viability, KO” value was 124.271.
Regarding `C[C@H](NC(=O)Cc1cc(F)cc(F)c1)C(=O)N[C@H](C(=O)OC(C)(C)C)c1ccccc1` [DAPT], the “Cell viability, WT” value in the data set with ARID1A-WT HCT116 cells (setting [1]) turned out to be 93.12. Further, the “Cell viability, KO” value in the data set on ARID1A-KO HCT116 cells (setting [2]) is on record as 103.8309.
Taken in the same sequence, the figures for `NCCCC(N)(C(=O)O)C(F)F` (centres unmarked) [DFMO] were 98.8 and 117.8191.
On the same counts, the results for `O=S(=O)(O)c1cc(N=C=S)ccc1C=Cc1ccc(N=C=S)cc1S(=O)(=O)O` [DIDS] are 97.04 and 107.2053.
Taken in the same sequence, the figures for `CN(C)c1nc2c(Br)c(Br)c(Br)c(Br)c2[nH]1` [DMAT] were 113.7397 and 116.7866.
Turning to `COC(=O)CNC(=O)C(=O)OC` [Dimethyloxalylglycine], the “Cell viability, WT” value in the data set with ARID1A-WT HCT116 cells (setting [1]) is 95.769. Moreover, in the data set with ARID1A-KO HCT116 cells (setting [2]), the “Cell viability, KO” value is 119.9436.
Consider `CCCCCCCC(=O)OCCOC(=O)CCCCCCC` [Dioctanoylglycol], for which the “Cell viability, WT” value with ARID1A-WT HCT116 cells (setting [1]) was determined as 99.78. The “Cell viability, KO” value with ARID1A-KO HCT116 cells (setting [2]) came to 109.4112.
As to `CCOC(=O)[C@H]1O[C@@H]1C(=O)N[C@@H](CC(C)C)C(=O)NCCC(C)C` [E-64d], in the data set with ARID1A-WT HCT116 cells (setting [1]), the “Cell viability, WT” value is reported as 100.8821. For the same compound, the “Cell viability, KO” value in the data set with ARID1A-KO HCT116 cells (setting [2]) stood at 100.5678.
With `Nc1[nH]nc2nnc(-c3c(-c4ccccc4)nn4ccccc34)cc12` [ERK inhibitor II], the “Cell viability, WT” value in the data set with ARID1A-WT HCT116 cells (setting [1]) is 103.8555. For the same compound, the “Cell viability, KO” value with ARID1A-KO HCT116 cells (setting [2]) was found to be 160.6702.
Taken in the same sequence, the figures for `CCCCCC#CCC#CCC#CCC#CCCCC(=O)O` [ETYA] were 95.86 and 110.2846.
Taken in the same sequence, the figures for `COc1ccc2c3c([nH]c2c1)[C@H](C=C(C)C)N1C(=O)[C@@H]2CCCN2C(=O)[C@@H]1C3` [Fumitremorgin C] were 90.41 and 97.39.
On the same counts, the results for `CCCC[C@@H](C)[C@@H](OC(=O)C[C@@H](CC(=O)O)C(=O)O)[C@H](C[C@@H](C)C[C@H](O)CCCC[C@@H](O)C[C@H](O)[C@H](C)N)OC(=O)C[C@@H](CC(=O)O)C(=O)O` [Fumonisin B1] are 87.23 and 83.33.
As to `COc1ccc2c(c1)c1c3c(c4c5ccccc5n(C)c4c1n2CC(O)CN(C)C)C(=O)NC3=O` (centres unmarked) [Go7874], the “Cell viability, WT” value with ARID1A-WT HCT116 cells (setting [1]) turned out to be 3.01. The “Cell viability, KO” value with ARID1A-KO HCT116 cells (setting [2]) is reported as 4.256.
On the same counts, the results for `CC1CNCCN1S(=O)(=O)c1cccc2cnccc12` (centres unmarked) [H-7] are 116.4721 and 70.52.
Regarding `O=S(=O)(NCCNC/C=C/c1ccc(Br)cc1)c1cccc2cnccc12` [H-89], in the data set with ARID1A-WT HCT116 cells (setting [1]), the “Cell viability, WT” value is reported as 78.81. The “Cell viability, KO” value in the data set with ARID1A-KO HCT116 cells (setting [2]) is recorded as 119.4541.
Regarding `CCOC(=O)C1=C(N)Oc2ccc(Br)cc2C1C(C#N)C(=O)OCC` (centres unmarked) [HA 14-1], the “Cell viability, WT” value in the data set with ARID1A-WT HCT116 cells (setting [1]) came out at 114.2556. The “Cell viability, KO” value in the data set with ARID1A-KO HCT116 cells (setting [2]) came out at 119.1814.
Take `CCCCN1C(=O)C2Cc3c([nH]c4ccccc34)C(c3cccc(O)c3)N2C1=O` (centres unmarked) [HR22C16]: the “Cell viability, WT” value in the data set on ARID1A-WT HCT116 cells (setting [1]) was found to be 12.52. The “Cell viability, KO” value with ARID1A-KO HCT116 cells (setting [2]) was 17.39.
For the compound `CC(C)Cn1c(=O)n(C)c(=O)c2[nH]cnc21` [IBMX], the “Cell viability, WT” value in the data set with ARID1A-WT HCT116 cells (setting [1]) is reported as 159.7152. For the same compound, the “Cell viability, KO” value in the data set with ARID1A-KO HCT116 cells (setting [2]) is 114.2526.
On the same counts, the results for `O=Cc1ccc(N2CCOCC2)cc1O` [IC60211] are 131.0236 and 174.6736.
On the same counts, the results for `NC(=O)Nc1sc(-c2ccccc2)cc1C(N)=O` [IKK-2 inhibitor VI] are 19.28 and 22.26.
Turning to `O=C(Nc1nc2ccccc2n1CCN1CCOCC1)c1cccc([N+](=O)[O-])c1` [IRAK-¼ inhibitor], in the data set with ARID1A-WT HCT116 cells (setting [1]), the “Cell viability, WT” value came to 142.234. Moreover, the “Cell viability, KO” value with ARID1A-KO HCT116 cells (setting [2]) is listed as 160.7174.
Taken in the same sequence, the figures for `Cc1ccc2nc(NC(=O)CSc3nc4c(c(=O)n3-c3ccccc3)SCC4)sc2c1` [IWP-2] were 78.56 and 90.8.
In the case of `O=C(Nc1cccc2cccnc12)c1ccc(N2C(=O)[C@@H]3[C@H](C2=O)[C@@H]2C=C[C@H]3C2)cc1` [IWR-1-endo], the “Cell viability, WT” value with ARID1A-WT HCT116 cells (setting [1]) was 76.34. The “Cell viability, KO” value in the data set with ARID1A-KO HCT116 cells (setting [2]) is 75.98.
As to `CCOc1nc(NC(=O)Cc2cc(OC)ccc2OC)cc(N)c1C#N` [JNK inhibitor VIII], the “Cell viability, WT” value with ARID1A-WT HCT116 cells (setting [1]) is on record as 127.134. Further, the “Cell viability, KO” value in the data set with ARID1A-KO HCT116 cells (setting [2]) is 189.4425.
Regarding `COc1ccc(S(=O)(=O)N(CCO)c2ccccc2CN(C)C/C=C/c2ccc(Cl)cc2)cc1` [KN93], the “Cell viability, WT” value with ARID1A-WT HCT116 cells (setting [1]) is listed as 20.89. For the same compound, in the data set with ARID1A-KO HCT116 cells (setting [2]), the “Cell viability, KO” value was 23.47.
`CN([C@@H](Cc1ccc(OS(=O)(=O)c2cccc3cnccc23)cc1)C(=O)N1CCN(c2ccccc2)CC1)S(=O)(=O)c1cccc2cnccc12` [KN-62]: the “Cell viability, WT” value in the data set with ARID1A-WT HCT116 cells amounted to 113.3229. The “Cell viability, KO” value in the data set on ARID1A-KO HCT116 cells amounted to 131.0212.
With `COC(=O)[C@@]1(OC)C[C@H]2O[C@]1(C)n1c3ccccc3c3c4c(c5c6ccccc6n2c5c31)C(=O)N(C)C4` [KT 5823], in the data set with ARID1A-WT HCT116 cells (setting [1]), the “Cell viability, WT” value is 102.1181. For the same compound, the “Cell viability, KO” value in the data set on ARID1A-KO HCT116 cells (setting [2]) came to 111.294.
`CNC(=N)NCCC[C@H](N)C(=O)O` [L-NMMA]: the “Cell viability, WT” value with ARID1A-WT HCT116 cells (setting [1]) was found to be 167.9828. The “Cell viability, KO” value in the data set with ARID1A-KO HCT116 cells (setting [2]) amounted to 116.4094.
On the same counts, the results for `c1ccc2c(-c3cnn4cc(-c5ccc(N6CCNCC6)cc5)cnc34)ccnc2c1` [LDN193189] are 2.832 and 2.712.
Taken in the same sequence, the figures for `C/C(O)=C(\C#N)C(=O)Nc1cc(Br)ccc1Br` [LFM-A13] were 93.88 and 106.7176.

These data come from US20220087987A1, “A METHOD FOR TREATING SWI/SNF COMPLEX-DEFICIENT CANCERS COMPRISING GLUTATHIONE (GSH) METABOLIC PATHWAY INHIBITOR” (National Cancer Center, priority 2018, published 2022).
